Assay [1] concerns the target Firefly luciferase (Fluc, EC 1.13.12.7) (Photinus pyralis, UniProt P08659). As to the kind of experiment: biochemical. Also noted: single determination (the paper says generally: 'qHTS assays were performed in a single replicate with a 7- to 11-point dose response format'; it is not stated for this counterscreen itself).
Assay [2] deals with Plasmodium falciparum Dd2 asexual blood stage parasites. As to the kind of experiment: microbe, parasite or virus in culture. Also on record: species or system Plasmodium falciparum Dd2 in human erythrocytes; single determination (one 11-point concentration-response curve). Conditions: Plasmodium falciparum, DD2, Erythrocyte, 72 h; read-out: AC50; call rule not given here.
The subject of assay [3] is luciferase-expressing P. berghei liver stage parasites in HepG2 cells. As to the kind of experiment: Inhibition of liver-stage development assay (ILSDA), Method 2 (WRAIR, 96-well). Type of assay: cell-based, Plasmodium berghei. The following applies: Method 2; Decrease = decreasing P. berghei viability with dose, Increase = increasing signal, Inactive = no dose response.

Assay [4] concerns T1, Plasmodium falciparum Dd2-attB-ScDHODH (transgenic line expressing yeast DHODH), asexual blood stages.
T1 construct: Dd2-attB-ScDHODH, the transgenic line that expresses yeast DHODH
Nature of the assay: organism not typed. Also noted: replicate k of 3 (each line is one of three independent assays; the three lines of one compound and parasite line follow each other). The following applies: 72 h, n = 1. In short, it runs like this: (§1)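 We compare activity in parasites carrying fumarate-using yeast DHODH with that in the parental line; mETC or parasite DHODH inhibitors are bypassed by this enzyme. Data come from three independent assays, analysed by two-sided Student's t-tests.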

In assay [5] the test system is T2, Plasmodium falciparum Dd2-attB (parental line), asexual blood stages.
T2 construct: Dd2-attB, the isogenic parental line
Nature of the assay: microbe, parasite or virus in culture. Also on record: replicate k of 3 (each line is one of three independent assays; the three lines of one compound and parasite line follow each other). The following applies: n = 1; for Individual replicates / Log AC50 (M): 72 h; for AC50: Plasmodium falciparum, DD2, 72 h, read-out: Individual replicates / Log AC50 (converted). An outline of the steps: as §1

Assay [6] has as its system P. berghei-ANKA-GFP-LucCON liver stage parasites in HepG2-A16-CD81EGFP cells. Nature of the assay: P. berghei liver stage Pb-Luc assay, Method 1 (UCSD, 1536-well). In kind it is cell-based, Plasmodium berghei. The following applies: Method 1.
For assay [7], the system named is T2, Plasmodium falciparum Dd2-attB (parental line), asexual blood stages. As to the kind of experiment: microbe, parasite or virus in culture. Conditions: Plasmodium falciparum, DD2, Erythrocyte, 72 h, read-out: Calculated / Average Log AC50 (M), mean of replicates, 72 h (converted). Also on record: species or system P. falciparum Dd2-attB in human erythrocytes; SYBR Green-I proliferation assay, Dd2-attB parental line, asexual blood stages.

Assay [8] has as its system P. falciparum Dd2 Cytb F123L. As to the kind of experiment: SYBR Green ABS proliferation assay, NCGC00473217 selected clone G08. In kind it is cell-based, Plasmodium falciparum. Conditions: Plasmodium falciparum. An outline of the steps:
(§2)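 72 h SYBR Green-I read; % response = relative growth vs controls. Clones from resistance selection, cloned by limiting dilution; 37 °C, 5% CO2/5% O2/90% N2.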

Assay [9] concerns P. falciparum Dd2 Cytb V259L. As to the kind of experiment: SYBR Green ABS proliferation assay, NCGC00473217 selected clone F06. Type of assay: cell-based, Plasmodium falciparum. Conditions: Plasmodium falciparum. In short, it runs like this: as §2
The subject of assay [10] is P. falciparum Dd2 Cytb A122D. As to the kind of experiment: SYBR Green ABS proliferation assay, NCGC00473217 selected clone F12. The following applies: Plasmodium falciparum, DD2, […]; averaged from three independent replicates; top concentration 29 µM; read-out: Average AC50 (Log[M]), NCGC00473217 clone F12 (Cytb A122D) (converted). Type of assay: cell-based, Plasmodium falciparum. In short, it runs like this: as §2

The subject of assay [11] is P. falciparum Dd2 (clone B2) asexual blood stage parasites. Nature of the assay: P. falciparum Dd2 asexual blood stage SYBR Green-I 72 h proliferation assay (qHTS). Type of assay: cell-based, Plasmodium falciparum. The following applies: Plasmodium falciparum, DD2, Dd2 parental; Hill fit, averaged from three independent replicates; top concentration 29 µM; read-out: Average AC50 (Log[M]), Dd2 (converted). In general terms: In qHTS, concentration-response curves come from the screen itself.

Assay [12] concerns P. falciparum Dd2 Cytb G131S. Nature of the assay: SYBR Green ABS proliferation assay, NCGC00374598 selected clone C11. Type of assay: cell-based, Plasmodium falciparum. The following applies: Plasmodium falciparum, DD2, […]; averaged from three independent replicates; top concentration 29 µM; read-out: Average AC50 (Log[M]), NCGC00374598 clone C11 (Cytb G131S) (converted). An outline of the steps:
as §2

Values joined by “and” are separate entries in the source; they are usually repeats but may differ in a detail not shown here. Equal entries are not always repeated. Where two headings read alike, the source gives them in different places.

Chain of Firefly luciferase (Fluc, EC 1.13.12.7) (P08659 whole entry): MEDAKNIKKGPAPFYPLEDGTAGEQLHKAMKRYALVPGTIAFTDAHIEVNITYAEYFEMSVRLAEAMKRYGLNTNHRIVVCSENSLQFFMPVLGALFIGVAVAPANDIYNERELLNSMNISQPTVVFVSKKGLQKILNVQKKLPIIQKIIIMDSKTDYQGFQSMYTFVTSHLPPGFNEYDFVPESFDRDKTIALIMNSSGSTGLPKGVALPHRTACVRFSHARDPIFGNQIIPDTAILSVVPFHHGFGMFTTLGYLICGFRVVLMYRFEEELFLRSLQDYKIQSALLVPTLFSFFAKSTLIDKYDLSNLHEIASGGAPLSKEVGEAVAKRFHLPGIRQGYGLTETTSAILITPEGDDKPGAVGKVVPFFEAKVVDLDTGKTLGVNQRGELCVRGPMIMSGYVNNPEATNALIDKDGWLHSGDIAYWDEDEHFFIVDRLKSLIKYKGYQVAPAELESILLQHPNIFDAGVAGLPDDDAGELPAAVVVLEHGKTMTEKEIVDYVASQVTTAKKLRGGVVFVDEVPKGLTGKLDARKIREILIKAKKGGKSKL

In [1], `COC(=O)c1nn(-c2ccc3c(c2)CCN3C(C)=O)cc1O` [MLS000565173-01] yielded an AC50 of 10.8 µM.
Still for that read-out and setting: for `Cc1cc(C(N)=NOC(=O)c2ccccc2Cl)no1` [MLS000833967-01] the value was 13.6 µM; for `CC1(C)Cc2nc3sc4c(SCC(=O)O)ncnc4c3cc2CO1` [MLS000778156-01], 10.8 µM.
Still for that read-out and setting: for `CCOc1ccc(NC(=O)c2ccc3c(c2)N(C)C2CCCN2C3=O)cc1` (stereo not drawn) [NCGC00452128-01] the value was 21.5 µM.
With `O=C(COc1ccc2ccccc2c1)Nc1nccs1` [MLS000718732-01], in assay [1], the AC50 was found to be 8.57 µM.
In the case of `C/C(=N\OCc1cccc(C(=O)O)c1)c1ccc(Cl)cc1` [MLS000850591-01], in assay [1], the AC50 was found to be 0.0136 µM.
Same read-out and setting: for `Cc1ccc2nc(N3C(=O)CNC3=S)sc2c1` [MLS000768544-01] the value was 10.8 µM; for `COc1ccc(C(=O)C=CNc2cc(C)ccn2)cc1` [MLS001043227-01], 8.57 µM; for `O=C(NC1CCCCC1)c1[nH]nc2c1CCCCC2` [MLS002178094-01], 4.82 µM.
`O=C1C(c2ccc(C(F)(F)F)cc2)=C(Nc2ccc(Cl)cc2)c2ccccc21` [NCGC00107304-01]: the AC50 is 1.5 µM in [2]; 0.564 µM in [5]; 0.282 µM in [6] (Hill fit, 50% of maximum activity response, read-out: AC50); 0.158 µM in assay [6] (Plasmodium berghei, Hill fit, 50% of maximum activity response, read-out: AC50); 0.158 µM in [6] (Plasmodium berghei, log10 of molar AC50 from Hill fit, read-out: Log AC50 (converted)); 7.1e-07 M in [7]. The “Max Resp (signal direction of the dose response)” value is recorded as “Inactive” in [3] and “Decrease” in assay [6] (Decrease = decreasing P. berghei viability with dose, Increase = increasing signal, Inactive = no dose response). For the same molecule, the “Individual replicates / Log AC50 (M)” value in [4] was -5.0986 Log AC50 (M) and -5.1486 Log AC50 (M) and -5.3986 Log AC50 (M); in assay [5] it was -6.0986 Log AC50 (M). Besides, in assay [6] (log10 of molar AC50 from Hill fit), the “Log AC50 (M)” value is given as -6.550 M.
As to `CC(C)(C)OC(=O)N1CCc2nc(C3CC3)nc(O)c2CC1` [NCGC00510066-01], the AC50 is 2.99e-06 M in [8] (DD2, cytochrome b mutant line, fifth value triple, c15, […], read-out: log AC50, mean (converted)); 8.93e-09 M in [9] (DD2, cytochrome b mutant line, third value triple, c9, […], read-out: log AC50, mean (converted)); 8.94e-06 M in assay [7].
Turning to `CCCN1C(CC(C)C)=N[S+](=O)([O-])c2cc(NC(=O)C3CC3)ccc21` [NCGC00510045-01], the AC50 is 1.12e-05 M in assay [8] (DD2, […], averaged from three independent replicates, top concentration 29 µM, read-out: Average AC50 (Log[M]), NCGC00473217 clone G08 (Cytb F123L) (converted)); 3.05e-06 M in [9] (DD2, […], averaged from three independent replicates, top concentration 29 µM, read-out: Average AC50 (Log[M]), NCGC00473217 clone F06 (Cytb V259L) (converted)); 4.32e-06 M in [10]; 3.99 µM in assay [4] (read-out: Individual replicates / Log AC50 (converted)); 0.894 µM in assay [5]; 4.32e-06 M in assay [11]. Further, the AC50 in [7] was 1.22e-06 M; in [12], 3.99e-06 M. Also, the “Individual replicates / Log AC50 (M)” value was -5.2986 Log AC50 (M) and -5.4486 Log AC50 (M) in assay [4]; -5.8486 Log AC50 (M) in [5].
